Consider 1 compound from BindingDB's records for doi:10.7270/Q2RR233C (D3R/Abbott, 2020).

The structures appear in SMILES notation. Where “and” joins values, the source holds several entries; their conditions need not be identical. Equal entries are not always repeated.

This assay deals with Tyrosine-protein kinase ABL1 (Homo sapiens, UniProt P00519). The experiment in a line: D3R2026.
Source text: D3R2026

Chain of Tyrosine-protein kinase ABL1 (P00519 whole entry): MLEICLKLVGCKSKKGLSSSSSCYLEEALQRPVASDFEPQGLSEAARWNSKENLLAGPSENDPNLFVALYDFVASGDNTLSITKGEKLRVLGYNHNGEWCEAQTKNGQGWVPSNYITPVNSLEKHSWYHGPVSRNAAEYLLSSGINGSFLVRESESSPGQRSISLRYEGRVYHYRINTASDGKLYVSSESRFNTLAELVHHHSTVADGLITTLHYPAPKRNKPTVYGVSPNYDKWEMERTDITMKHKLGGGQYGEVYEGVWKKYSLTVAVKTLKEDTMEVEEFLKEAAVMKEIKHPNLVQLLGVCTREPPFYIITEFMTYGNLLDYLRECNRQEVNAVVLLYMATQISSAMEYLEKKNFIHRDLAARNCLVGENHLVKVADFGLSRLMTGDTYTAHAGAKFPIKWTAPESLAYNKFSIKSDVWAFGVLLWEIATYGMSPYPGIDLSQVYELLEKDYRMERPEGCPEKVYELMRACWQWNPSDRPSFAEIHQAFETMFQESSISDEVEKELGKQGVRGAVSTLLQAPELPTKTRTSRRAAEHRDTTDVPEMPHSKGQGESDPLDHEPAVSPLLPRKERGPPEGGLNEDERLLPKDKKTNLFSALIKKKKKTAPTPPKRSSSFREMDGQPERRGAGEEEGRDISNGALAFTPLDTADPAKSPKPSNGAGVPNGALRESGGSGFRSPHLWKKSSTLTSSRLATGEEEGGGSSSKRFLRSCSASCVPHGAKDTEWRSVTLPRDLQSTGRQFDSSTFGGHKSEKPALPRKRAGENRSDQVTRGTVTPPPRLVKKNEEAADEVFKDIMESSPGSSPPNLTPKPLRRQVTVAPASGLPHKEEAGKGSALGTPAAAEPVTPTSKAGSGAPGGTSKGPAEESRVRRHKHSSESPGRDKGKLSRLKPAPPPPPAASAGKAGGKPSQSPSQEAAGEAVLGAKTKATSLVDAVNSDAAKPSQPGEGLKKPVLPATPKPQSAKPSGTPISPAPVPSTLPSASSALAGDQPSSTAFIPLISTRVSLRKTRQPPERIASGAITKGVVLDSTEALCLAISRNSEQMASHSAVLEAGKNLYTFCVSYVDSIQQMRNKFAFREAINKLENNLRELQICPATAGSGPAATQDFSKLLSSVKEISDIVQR

What is called Kd is a measure of binding affinity in units of concentration. A high value points to lower affinity. Turning to `CCOC(=O)N1CCC(n2cnc(-c3ccc(F)cc3)c2-c2ccnc(N)n2)CC1` [4-[5-(2-Amino-pyrimidin-4-yl)-4-(4-fluoro-phenyl)-imidazol-1-yl]-piperidine-1-carboxylic acid ethyl ester], the Kd is 4.8 µM and 10 µM and 2.2 µM and 5.4 µM.
